From US9937192B2, “Combination therapy to treat mycobacterium diseases” (priority 2012, dated 2018)
Counter-ions that a name gives are not always drawn. Like-named read-outs stand apart in the source and are kept apart here.

Experiments:
Format in all cases: cell-based
[1] = tested on: Mycobacterium tuberculosis; assay: Mycobacterium tuberculosis Serum Shift MIC Assay (Protocol 5); conditions: ATCC 35801 / ERDMAN
Source text: Protocol 5. Protocol for Mycobacterium tuberculosis Serum Shift MIC Assay
Media Prep: • 1. […] It was important that all media and supplements were sterilized prior to MICs. • 2. Prepared all media below and inoculated as described in next section. Tested all compounds against Mtb using each media. • a. […] 7H9+0.2% glycerol+2 g/L dextrose+0.85 g/L NaCl+0.003 g/L catalase (0% FBS). • c. 2×7H9+0.2% glycerol+2 g/L dextrose+0.85 g/L NaCl+0.003 g/L catalase combined with equal volume Fetal Bovine Serum (50% FBS).
Inoculum Prep: • 1. Using BBL Prompt, picked 5-10 well-separated colonies and inoculated 1 ml sterile saline that came in the kit. Typically plates were two to three weeks of age when used for this assay due to the slow growth of this organism in culture. • 2. Vortexed well, then sonicated in water bath for 30 sec providing a suspension of ˜10^8 cells/ml. Actual density could be confirmed by plating out dilutions of this suspension. • 3. Prepared inoculum in each of the three media formulations by diluting the BBL Prompt suspension 1/200 (for example: transferred 0.2 ml of cells to 40 ml of medium) to obtain a starting cell density of […]. • 4. Used 100 μl cells (˜5×10^4 cells) to inoculate each microtiter well containing 1 μl of drug in DMSO (see below).
Drug Dilutions, Inoculation, MIC Determination: • 1. Control drug stocks Isoniazid and Novobiocin were prepared at 10 mM in 100% DMSO while Ciprofloxacin and Rifampin were prepared at 1 mM in 50% DMSO and 100% DMSO, respectively. Prepared dilutions—dispensed 100 μL of the stock solution into the first column of a 96-well plate. Prepared 11-step, 2-fold serial dilutions across the row for each compound by transferring 50 μl from column 1 into 50 μl of DMSO in column 2. Continued to transfer 50 μL from column 2 through column 11 while mixing and changing tips at each column. Left column 12 with DMSO only as a control. • 2. Transferred 1 μl of each dilution into an empty microtiter well prior to the addition of 100 μl of cells. The starting concentration of Isoniazid and Novobiocin was 100 μM after the dilution into medium+cells; the starting concentration of Ciprofloxacin and Rifampin was 10 μM after the dilution into medium+cells. Compound concentrations decreased in 2× steps moving across the rows of the microtiter plate. […] Measured background fluorescence at Excitation 492 nm, Emission 595 nm and returned the plate to the incubator for another 24 hours.
After 24 hours the fluorescence of each well was measured at Excitation 492 nm, Emission 595 nm.
Percent inhibition by a given compound was calculated as follows: Percent inhibition=100−([well fluorescence-average background fluorescence]/[DMSO control−average background fluorescence]×100). […]

[2] = tested on: intracellular M. tuberculosis in THP-1 cells; assay: microbe, parasite or virus in culture; conditions: Mycobacterium tuberculosis, H37RA
M. smegmatis = assay: MIC in bacterial broth culture (7H9 with ADC, visual or resazurin); conditions: Mycolicibacterium smegmatis, Table 31
[3] = tested on: intracellular M. tuberculosis in J774 cells; assay: Efficacy against intracellular M. tuberculosis (luciferase) in J774 cells; conditions: Mycobacterium tuberculosis, J774, 120 h
M. tuberculosis Erdman = assay: MBC assay, log killing reduction in CFU over a one month period of incubation (Table 35); conditions: for Log Reduction (cfu): Compound 23A at 4×MIC
M. tuberculosis = assay: microbe, parasite or virus in culture; conditions: Mycobacterium tuberculosis
M. tuberculosis H37Rv = assay: Minimum bactericidal concentration (MBC) assay; conditions: for Log Reduction: vs untreated control
[4] = tested on: Non-Replicating (NRP) M. tuberculosis H37Ra; assay: Non-replicating (NRP) M. tuberculosis H37Ra (luciferase) culture assay; conditions: Mycobacterium tuberculosis, 336 h, read on day 14
M. kansasii = assay: MIC in bacterial broth culture (7H9 with ADC, visual or resazurin); conditions: Mycobacterium kansasii, Table 31; M. kansasii 303; duplicate values

CCNC(=O)Nc1nc2cc(-c3cnc(C(C)(C)O)nc3)c(F)c([C@H]3CCCO3)c2[nH]1 [Compound 23A, methanesulfonic acid salt of 1-ethyl-3-[6-fluoro-5-[2-(1-hydroxy-1-methyl-ethyl)pyrimidin-5-yl]-7-[(2R)-tetrahydrofuran-2-yl]-1H-benzimidazol-2-yl]urea]
MIC ([1]; M. tuberculosis Erdman ATCC 35801, read-out: MIC): 0.03 µg/mL
MIC ([1]; M. tuberculosis Erdman ATCC 35801 with Mouse Serum): 0.5 µg/mL
IC50 ([2]; THP-1, 120 h, read-out: Mtb H37Ra in THP1 Cells (IC50)): 0.03 µg/mL
MIC ([2]; read-out: MIC, Macrophage Cells): 0.03 µg/mL
MIC (M. smegmatis): 6.25 µg/mL
IC50 ([3]; ERDMAN, read-out: Mtb Erdman in J774 Cells (IC50)): < 0.17 µg/mL
IC50 ([3]; H37RV, read-out: Mtb H37Rv in J774 Cells (IC50)): 0.21 µg/mL
IC50 ([3]; read-out: Mtb CDC1551 in J774 Cells (IC50)): 0.12 µg/mL
killing kinetics (log reduction in CFU) (M. tuberculosis Erdman; 4×MIC, one month period of incubation): slow killing kinetics
Log Reduction (cfu) (M. tuberculosis Erdman; day 0 of incubation): 0 Log
Log Reduction (cfu) (M. tuberculosis Erdman; day 1 of incubation): 0.2 Log
Log Reduction (cfu) (M. tuberculosis Erdman; day 2 of incubation): 0.2 Log
Log Reduction (cfu) (M. tuberculosis Erdman; day 3 of incubation): 1.0 Log
Log Reduction (cfu) (M. tuberculosis Erdman; day 7 of incubation): 1.9 Log
Log Reduction (cfu) (M. tuberculosis Erdman; day 14 of incubation): 1.9 Log
Log Reduction (cfu) (M. tuberculosis Erdman; day 21 of incubation): 2.2 Log
Log Reduction (cfu) (M. tuberculosis Erdman; day 28 of incubation): 3.0 Log
MIC (M. tuberculosis; GN9, Table 31, Mtb GN9, duplicate values, read-out: MIC): 0.03 µg/mL
MIC (M. tuberculosis; H37RA, read-out: MIC, Broth): 0.01 µg/mL
MIC (M. tuberculosis; H37RV, Table 33, M. tuberculosis strain H37Rv, read-out: MIC): 0.125 µg/mL
MIC (M. tuberculosis; Table 32, […], duplicate values, read-out: MIC): 0.125 µg/mL
MIC (M. tuberculosis; Table 33, M. tuberculosis strain AH13, read-out: MIC): 0.5 µg/mL
MIC (M. tuberculosis; Table 33, M. tuberculosis strain BW9, read-out: MIC): 0.125 µg/mL
MIC (M. tuberculosis; Table 33, M. tuberculosis strain H10460, read-out: MIC): 0.5 µg/mL
MIC (M. tuberculosis; Table 33, M. tuberculosis strain MC19062, read-out: MIC): 0.125 µg/mL
MIC (M. tuberculosis; Table 33, M. tuberculosis strain W10, read-out: MIC): 0.125 µg/mL
Log cfu (M. tuberculosis H37Rv; 0.039 ug/mL): 5.36
Log Reduction (M. tuberculosis H37Rv; 0.039 ug/mL): 0.77
Log cfu (M. tuberculosis H37Rv; 0.078 ug/mL): 3.75
Log Reduction (M. tuberculosis H37Rv; 0.078 ug/mL): 2.38
Log cfu (M. tuberculosis H37Rv; 0.156 ug/mL): 1.04
Log Reduction (M. tuberculosis H37Rv; 0.156 ug/mL): 5.09
Log cfu (M. tuberculosis H37Rv; 0.312 ug/mL): 1.32
Log Reduction (M. tuberculosis H37Rv; 0.312 ug/mL): 4.81
Log cfu (M. tuberculosis H37Rv; 0.625 ug/mL): 1.04
Log Reduction (M. tuberculosis H37Rv; 0.625 ug/mL): 5.09
IC50 [4]: 1 µg/mL
MIC (M. kansasii): 0.03 µg/mL
